Here are results for seven compounds from patent US20110224242A1, “STYRLYQUINOLINES, THEIR PROCESS OF PREPARATION AND THEIR THERAPEUTIC USES” (BIOALLIANCE PHARMA, priority 2008, published 2011).

Each structure is given as a SMILES string. Where two headings read alike, the source gives them in different places.

Data set [1] has as its system wild type HIV-1 virus (NL 4.3 strains). Put plainly: Antiviral activity assay CEM cells (p24 ELISA). It counts as cell-based. The settings on record: Human immunodeficiency virus 1, CCRF-CEM, read-out: CEM. How it is done: The activity is determined by infecting CEM cells with a wild type HIV-1 virus (NL 4.3 strains at 3 ng) on cells in presence or absence of drugs. A serial dilution of drugs is done to evaluate the EC50. […] After 48 hours incubation, the quantification is done by the evaluation of the viral protein p24 with a commercial Elisa Kit. P24 is a protein essential to the replication virus cycle. The quantification of this enzyme is proportional to the amount of virus produced by the infected cells.
A general note: ELISA stands for enzyme-linked immunosorbent assay.

Data set [2] is described as follows: Stability in Hepes buffer 0.5 M pH 7.5 (UV spectrophotometry). In kind it is physicochemical. The conditions noted are these: HEPES 0.5 M pH 7.5, 37°, 50 μM (SQE94 and 79 at 25 μM). The protocol: 2.1. Hepes Buffer 0.5M, pH 7.5. 16 μl of drug at 25 mM, in 8 ml of Hepes Buffer. Different time points were done, Oh, 2 h, 4 h, 24 h, and 48 h.
Stability of the compounds was performed in HEPES Buffer 0.5 M (pH 7.5) at 37 O, at a concentration of 50 μM. Compounds SQE94 and 79 were tested at a concentration of 25 μM to avoid parasite precipitation phenomena. Typically, stock solutions of compounds in DMSO (25 mM) were diluted in HEPES Buffer. Dilutions were stored at 37° C., protected from light. Sampling was done at different time points. Samples were analyzed on an UV-spectrophotometer using a wavelength scan between 200 and 700 nm. Superposition of UV-spectra gives the qualitative aspect of the stability of the drug. Based on the Beer-Lambert law, percentage of degradation of the drug over time was calculated, when placed at the maximum absorption wavelength.

A short description of another data set: in vitro. The settings on record: human. It counts as cell-based. The protocol: The cytotoxicity of compounds was evaluated using un-infected and infected Hel_a-P4 cell and CEM leukemia cells. CEM cell were obtained from the American Type Tissue Collection (Rockville, Md.).
A serial dilution of drugs is done to evaluate the cytotoxicity concentration and is identified by CC50 (concentration of drug which induces 50% of cytotoxicity)
The HeLa-P4 was cultured in the presence or absence of compounds for 2 days. After this time period, cells were cultivated with MTT for 3 hours, further the medium is removed. And the lysis buffer is incubated for 1 hour, followed by plate reading at 540 nm in a microplate reader.

Another data set has as its target T1, HBX2 HIV integrase (Human immunodeficiency virus type 1 group M subtype B, UniProt P04585).
T1 construct: contains the cDNA encoding the HBX2 HIV integrase; His tag (N, cleaved yes); made in house; host or cells: Escherichia coli BL21 (DE3)
Put plainly: 3' LTR processing assay. In kind it is biochemical. How it is done: The pET-15b-IN plasmid contains the cDNA encoding the HBX2 HIV integrase. His-tagged integrase protein was overexpressed in Escherichia coli BL21 (DE3) and purified under native conditions. Briefly, at an OD of 0.8, fusion protein expression was induced in bacterial cultures by the addition of IPTG (1 mM). Cultures were incubated for 3 h at 37° C., of ter which cells were centrifuged. The cell pellet was resuspended in ice-cold buffer A [20 mM Ths-HCl (pH 8), 1 M NaCl, 4 mM β-mercaptoethanol, and 5 mM imidazole], treated with lysozyme for 1 h on ice, and sonicated. After centrifugation (30 min at 10 000 rpm), the supernatant was filtered (0.45 μm) and incubated for at least 2 h with Ni-NTA agarose beads (Pharmacia). The beads were washed twice with 10 volumes of buffer A, 10 volumes of buffer A with 50 mM imidazole, and 10 volumes of buffer A with 100 mM imidazole. His-tagged integrase was then eluted with buffer A supplemented with 50 μM ZnSO4 and 1 M imidazole. The integrase concentration was adjusted to 0.1 mg/mL in buffer A. The fusion protein was cleaved using thrombin and dialyzed overnight against 20 mM Ths-HCl (pH 8), 1 M NaCl, and 4 mM (3-mercaptoethanol. After removal of biotinylated thrombin by incubation with streptavidin-agarose magnetic beads (Novagen, Madison, Wis.), a second dialysis was performed for 2 h against 20 mM Ths-HCl (pH 8), 1 M NaCl, 4 mM mercaptoethanol, and 20% (v/v) ethylene glycol. Fractions were aliquoted and rapidly frozen at −80° C.
Oligonucleotides U5B (5′-[…]-3′), U5B-2 (5′-GTGTGGAAAATCTCTAGCA-3′), U5A (5′-[…]-3′) were purchased from Eurogentec (Liege, Belgium) and further purified on an 18% denaturing acrylamide/urea gel. For processing, strand transfer, 100 pmol of U5B, U5B-2, respectively, were radiolabeled using T4 polynucleotide kinase and 50 μCi of [γ-32P]ATP (3000 Ci/mmol). The T4 kinase was heat inactivated, and unincorporated nucleotides were removed using a Sephadex G-10 column (GE Healthcare). NaCl was added to a final concentration of 0.1 M, and complementary unlabeled strand USA was added to either U5B or U5B-2. The mixture was heated to 90° C. for 3 min, and the DNA was annealed by slow cooling.
Processing reaction was performed using U5A-U5B, in buffer containing 20 mM Tris (pH 7.2), 50 mM NaCl, 10 mM DTT, and 10 mM MgCl2. […] The reactions were stopped by phenol/chloroform extraction, and DNA products were precipitated with ethanol. The products were separated in TE containing 7 M urea and electrophoresed on an 18% denaturing acrylamide/urea gel. Gels were analyzed using a STORM Molecular Dynamics phosphorimager and quantified with Image Quant™ 4.1 software.

Data set [3] has as its system wild type HIV-1 virus (NL 4.3 strains). Put plainly: Antiviral activity assay on Hela P4 cells (beta-galactosidase, CPRG). The settings on record: read-out: P4 IC50. In kind it is cell-based. How it is done:
The antiviral activity is determined by infecting HelaP4 cells with a wild type HIV-1 virus (NL 4.3 strains at 3 ng) on cells in presence or absence of drugs. A serial dilution of drugs is done to evaluate the EC50. The effective concentration is the concentration of product at which virus replication is inhibited by 50 percent. After 48 hours incubation, the quantification is done by the evaluation of β-Galactosidase produced by the infected Hela P4 cells. The viral activity is evaluated by colorimethc assay, CPRG, followed by plate reading at 570 nm with a reference of 690 nm. The CPRG test is a colorimetric assay which allows to quantity the β-galactosidase produced by HIV-1 infected indicator cells (the β-Gal gene being under the control of the HIV-1 LTR).

Data set [4] in a line: Chemical stability at pH between 1 and 7. In kind it is physicochemical. The settings on record: over 24 hrs at pH between 1 and 7.
Data set [5] in a line: Solubility of compound SQE94 in pH-buffers. It counts as physicochemical. The conditions noted are these: compound alone, room temperature, 24 h. The protocol:
Solubility of compound SQE94 was determined in pH-buffers at pH values of 5, 6 and 7. 10 mg of SQE94 are added to 10 ml of each pH-buffer. Each solution is stirred at room temperature, away from light, for 24 h, then centrifugated. The amount of dissolved compound is determined by HPLC analysis.

Data set [6] is described as follows: Stability by HPLC in PEG400 and Vitamine E-TPGS/PEG 400 mixtures. In kind it is physicochemical. The conditions noted are these: over 24 hrs at room temperature in several mixtures of excipients. The protocol: The second stability assay consists in the assessment according to standard HPLC analysis protocols over 24 hrs in PEG400 and Vitamine E-TPGS/PEG 400 mixtures, by focusing on the evolution of the concentration and peak purity of the compound. Compounds were dissolved in appropriate amounts of solvent and let under stirring protected from light for 24 hrs. Aliquots were transferred into eppendorfs and centrifuged at 10 000 g for 10 min. Supernatants were collected and appropriately diluted in DMSO/mobile phase mixtures before HPLC analysis. The Waters HPLC analysis system equipped with an ultraviolet detector and a Waters Symmetry Shield C18 column of 2.1 mm×50 mm ([…]) was used. A mobile phase of water/acetic acid 0.1% (Solvant A): Acetonitrile/acetic acid 0.1% (solvent B) mixture or a water/trifluoroacetic acid 0.1% (Solvant A): Acetonitrile/trifluoroacetic acid 0.1% (solvent B) mixture in the case of compound FZ41 was pumped according to a binary gradient described below, at a flow rate of 0.4 ml/min.

Where [7] appears, read: CEM cells, HIV-1 NL 4.3, 48 hours, p24.
Where [8] appears, read: Human immunodeficiency virus 1, HeLaP4, HeLa P4 cells, HIV-1 NL 4.3, 48 hours.
Setting [9] is: Human immunodeficiency virus 1, HeLaP4, 48 h.

One may read the IC50 as the concentration at which inhibition is half-maximal. As for `CC(=O)c1ccc(O)c2nc(/C=C/c3cc(O)c(O)cc3O)ccc12` [SQE74, 1-{2-[2(E)-(2,4,5-thhydroxyphenyl)-vinyl]-8-hydroxy-quinolin-5-yl}-ethanone], in [1] (setting [7]), the EC50 came to 350 nM. Also, the “% of degradation” value stood at 17.2% in data set [2] (2 hrs), 26.1% in data set [2] (4 hrs) and 24.1% in [2] (24 hrs). For the same compound, in the data set “in vitro”, the IC50 at 2 days came to 11700 nM. Further, the IC50 against HBX2 HIV integrase is 225 nM; in [3] (setting [8]), 11800 nM.

For `CC(=O)c1ccc(O)c2nc(/C=C/c3cc(O)c(O)c(O)c3)ccc12` [SQE75, 1-{2-[2(E)-(3,4,5-thhydroxyphenyl)-vinyl]-8-hydroxy-quinolin-5-yl}-ethanone], in [1] (setting [7]), the EC50 is 24700 nM. Moreover, the figures for the “% of degradation” value in data set [2] (2 hrs), in [2] (4 hrs) and in data set [2] (24 hrs) were 15.7%, 17.5% and 18.7%, respectively. In addition, the IC50 at 2 days in the data set “in vitro” is over 100000 nM. Further, the results for the IC50 (against HBX2 HIV integrase; in [3] (setting [8])) were 510 nM and 9600 nM, respectively.

With `CC(=O)c1ccc(O)c2nc(/C=C/c3cc(O)c(O)c([N+](=O)[O-])c3)ccc12` [SQE79, 1-{2-[2(E)-(3,4-dihydroxy, 5-nitrophenyl)-vinyl]-8-hydroxy-quinolin-5-yl}-ethanone], in data set [1] (setting [7]), the EC50 was 400 nM. Besides, the “% of degradation” value was found to be 19.2% in [2] (2 hrs), 26.9% in [2] (4 hrs) and 42.9% in [2] (24 hrs). Moreover, the IC50 at 2 days in “in vitro” was determined as 4200 nM. In addition, the values for the 50% inhibitory concentration (IC50) (against HBX2 HIV integrase; in data set [3] (setting [8])) were 225 nM and 4600 nM, respectively.

For orientation: melting point means the temperature, or range, at which the solid turns liquid. With `CC(=O)c1ccc(O)c2nc(/C=C/c3cc(O)c(O)c(Cl)c3)ccc12` [SQE86, (E)-1-(2-(3-chloro-4,5-dihydroxystyryl)-8-hydroxyquinolin-5-yl)ethanone], the melting point fell in the range of 256 to 258 °C. In addition, the EC50 in data set [1] (48 h) was found to be 500 nM. Further, in data set [2] (2 hrs), the “% of degradation” value was found to be 12.1%. Besides, the “% of degradation” value in data set [2] (4 hrs) is 12.5%. For the same compound, the “% of degradation” value in [2] (24 hrs) came to 22.4%. In the data set “in vitro”, this compound yielded an IC50 at 2 days of 15000 nM. For the same compound, half-maximal inhibition on HBX2 HIV integrase (IC50) was put at 530 nM. Besides, the IC50 in data set [3] (setting [9]) was 1000 nM.

The compound `CC(=O)c1ccc(O)c2nc(/C=C/c3ccc(O)c(C(=O)O)c3)ccc12` [SQE89, (E)-5-(2-(5-acetyl-8-hydroxyquinolin-2-yl)vinyl)-2-hydroxybenzoic acid] came in with a melting point of 266 to 268 °C. The “% of degradation” value in data set [2] (2 hrs) is under 5%. Besides, the “% of degradation” value in data set [2] (4 hrs) is given as under 5%. For the same compound, the “% of degradation” value in data set [2] (24 hrs) was under 5%. In “in vitro”, this compound registered a half-inhibitory concentration (IC50) at 2 days of 12600 nM. At HBX2 HIV integrase, this compound gave an IC50 of 560 nM. In addition, in data set [3] (setting [9]), the IC50 was 1000 nM.

`COc1cc(/C=C/c2ccc3c(C(C)=O)ccc(O)c3n2)cc([N+](=O)[O-])c1O` [SQE94, 1-{2-[2(E)-(3-nitro, 4-hydroxy, 5-methoxyphenyl)-vinyl]-8-hydroxy-quinolin-5-yl}-ethanone]: the chemical profile stability entry in data set [4] is on record as “very stable chemical profiles”. For the same compound, the results for the “Dissolved compound SQE94” value in [5] (pH5 buffer), in [5] (pH6 buffer) and in [5] (pH7 buffer) were 1.4 µg/mL, 1.4 µg/mL and 5.5 µg/mL, respectively. The “% of degradation” value in [2] (2 hrs) is recorded as under 5%; in [2] (4 hrs), 8.2%; in [2] (24 hrs) it was 30.8%. In “in vitro”, this compound showed a concentration for half-maximal inhibition (IC50) at 2 days of 56000 nM. Besides, in data set [6], the degradation entry was “less than 10%”. In addition, the concentration for half-maximal inhibition (IC50) on HBX2 HIV integrase turned out to be 724 nM; in data set [3] (setting [8]), 1600 nM.

For `CC(=O)c1ccc(O)c2nc(/C=C/c3ccc(C(=O)O)cc3[N+](=O)[O-])ccc12` [SQE96, 4-[2(E)-(5-Acetyl-8-hydroxy-quinolin-2-yl)-vinyl]-5-nitro-benzoic acid], the “% of degradation” value in data set [2] (2 hrs), in data set [2] (4 hrs) and in data set [2] (24 hrs) was under 5% in each case. The compound further came in with an IC50 at 2 days in the data set “in vitro” of over 100000 nM. The half-inhibitory concentration (IC50) against HBX2 HIV integrase is 2300 nM; in data set [3] (setting [8]) it was 40000 nM.
